In test [1] the target is T1, Type I 5α-Reductase from Human Scalp (Homo sapiens, UniProt P18405).
T1 construct: Scalp punch biopsies from graft recipient sites were obtained from human hair transplant procedures; from tissue; host or cells: human scalp punch biopsies (hair transplant graft recipient sites), homogenate, 100,000×g pellet
T1 sequence (P18405 1-259): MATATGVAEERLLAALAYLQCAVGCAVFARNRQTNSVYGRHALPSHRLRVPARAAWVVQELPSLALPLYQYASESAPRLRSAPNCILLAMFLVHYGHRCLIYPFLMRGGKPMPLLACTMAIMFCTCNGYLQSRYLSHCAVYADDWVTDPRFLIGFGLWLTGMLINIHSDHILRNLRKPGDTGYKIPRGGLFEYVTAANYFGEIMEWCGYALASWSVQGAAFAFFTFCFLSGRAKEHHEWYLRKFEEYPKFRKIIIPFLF
In words: Human Type I 5α-reductase assay (conversion of [3H]-testosterone to 5α-reduced metabolites). Conditions: 50 nM [3H]-testosterone, pH 7.5, 25°, 180 min, compared to control reaction mixtures; for inhibition at 0.3 µM: pH 7.5, 0.3 μM, read-out: percent inhibition of Type I AR. In kind it is biochemical.

In test [2] the target is T2, Type II 5α-Reductase from Human Prostate (Homo sapiens, UniProt P31213).
T2 construct: The same procedure as above was used for preparations using tissue from prostate surgery; from tissue; host or cells: human prostate tissue from surgery, homogenate, 100,000×g pellet
T2 sequence (P31213 1-254): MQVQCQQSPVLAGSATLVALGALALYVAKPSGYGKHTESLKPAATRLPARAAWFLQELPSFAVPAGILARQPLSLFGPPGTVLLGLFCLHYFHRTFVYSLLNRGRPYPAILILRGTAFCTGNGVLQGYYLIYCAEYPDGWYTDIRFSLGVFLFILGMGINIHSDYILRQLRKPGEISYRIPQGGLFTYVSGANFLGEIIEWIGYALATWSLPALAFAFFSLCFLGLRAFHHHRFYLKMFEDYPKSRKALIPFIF
Briefly: Human Type II 5α-reductase assay (conversion of [3H]-testosterone to 5α-reduced metabolites). Conditions: pH 5.5, 0.3 μM; sodium acetate pH 5.5, 25°, 30 min; compared to control reaction mixtures; read-out: percent inhibition of Type II AR. It counts as biochemical.

Molecules are shown by their SMILES.

Consider `C[C@]12CCC(=O)N[C@@H]1CCc1cc(Sc3ccc(Cl)cc3)ccc12` [Example 5, (+)-(4aR)-(10bR)-8-(4-chlorophenylthio)-10b-methyl-1,2,3,4,4a,5,6,10b-octahydrobenzo [f]quinolin-3-one], for which the inhibition at 0.3 µM in test [1] was 44%; in test [2], 0%.
Consider `Cc1ccc(Sc2ccc3c(c2)CC[C@H]2NC(=O)CC[C@]32C)cc1` [Example 6, (+)-(4aR)-(10bR)-8-(4-methylphenylthio)-10b-methyl-1,2,3,4,4a,5,6,10b-octahydrobenzo [f]quinolin-3-one], for which the inhibition at 0.3 µM in test [1] worked out at 11%; in test [2] it was 23%.
Taken in the same sequence, the figures for `C[C@]12CCC(=O)N[C@@H]1CCc1cc(Sc3ccccc3Cl)ccc12` [Example 7] were 49% and 42%.
The matching figures for `C[C@]12CCC(=O)N[C@@H]1CCc1cc(Sc3cccc(Cl)c3)ccc12` [Example 8, (+)-(4aR)-(10bR)-8-(3-chlorophenylthio)-10b-methyl-1,2,3,4,4a,5,6,10b-octahydrobenzo[f]quinolin-3-one]: 22% and 59%.
Taken in the same sequence, the figures for `Cc1ccccc1Sc1ccc2c(c1)CC[C@H]1NC(=O)CC[C@]21C` [Example 9, (+)-(4aR)-(10bR)-8-(2-methylphenylthio)-10b-methyl-1,2,3,4,4a,5,6,10b-octahydrobenzo[f]quinolin-3-one] were 3% and 31%.
Turning to `Cc1cccc(Sc2ccc3c(c2)CC[C@H]2NC(=O)CC[C@]32C)c1` [Example 10, (+)-(4aR)-(10bR)-8-(3-methylphenylthio)-10b-methyl-1,2,3,4,4a,5,6,10b-octahydrobenzo[f]quinolin-3-one], the results for the inhibition at 0.3 µM in test [1] and in test [2] were 22% and 40%, respectively.
The matching figures for `C[C@]12CCC(=O)N[C@@H]1CCc1cc(Sc3cccc4ccccc34)ccc12` [Example 11, (+)-(4aR)-(10bR)-8-(1-naphthylthio)-10b-methyl-1,2,3,4,4a,5,6,10b-octahydrobenzo[f]quinolin-3-one]: 87% and 40%.
The matching figures for `COc1ccccc1Sc1ccc2c(c1)CC[C@H]1NC(=O)CC[C@]21C` [Example 12, (+)-(4aR)-(10bR)-8-(2-methoxyphenylthio)-10b-methyl-1,2,3,4,4a,5,6,10b-octahydrobenzo[f]quinolin-3-one]: 16% and 22%.
Taken in the same sequence, the figures for `COc1ccc(Sc2ccc3c(c2)CC[C@H]2NC(=O)CC[C@]32C)cc1` [Example 13, (+)-(4aR)-(10bR)-8-(4-methoxyphenylthio)-10b-methyl-1,2,3,4,4a,5,6,10b-octahydrobenzo[f]quinolin-3-one] were 11% and 22%.
Regarding `C[C@]12CCC(=O)N[C@@H]1CCc1cc(Sc3ccc(F)cc3)ccc12` [Example 14, (+)-(4aR)-(10bR)-8-(4-fluorophenylthio)-10b-methyl-1,2,3,4,4a,5,6,10b-octahydrobenzo[f]quinolin-3-one], the values for the inhibition at 0.3 µM in test [1] and in test [2] were 37% and 25%, respectively.
The matching figures for `COc1cccc(Sc2ccc3c(c2)CC[C@H]2NC(=O)CC[C@]32C)c1` [Example 15, (4aR)-(10bR)-8-(3-methoxyphenylthio)-10b-methyl-1,2,3,4,4a,5,6,10b-octahydrobenzo[f]quinolin-3-one]: 23% and 39%.
Taken in the same sequence, the figures for `C[C@]12CCC(=O)N[C@@H]1CCc1cc(Sc3cccc(F)c3)ccc12` [Example 16, (+)-(4aR)-(10bR)-8-(3-fluorophenylthio)-10b-methyl-1,2,3,4,4a,5,6,10b-octahydrobenzo[f]quinolin-3-one] were 14% and 28%.
The matching figures for `C[C@]12CCC(=O)N[C@@H]1CCc1cc(Sc3ccccc3F)ccc12` [Example 17, (+)-(4aR)-(10bR)-8-(2-fluorophenylthio)-10b-methyl-1,2,3,4,4a,5,6,10b-octahydrobenzo[f]quinolin-3-one]: 29% and 19%.
Take `C[C@]12CCC(=O)N[C@@H]1CCc1cc(Sc3cnc4ccccc4c3)ccc12` [Example 18, (4aR)-(10bR)-8-(3-quinolinylthio)-10b-methyl-1,2,3,4,4a,5,6,10b-octahydrobenzo[f]quinolin-3-one]: the inhibition at 0.3 µM in test [1] amounted to 7%; in test [2], 15%.
As to `C[C@]12CCC(=O)N[C@@H]1CCc1cc(Sc3ccc4ccccc4n3)ccc12` [Example 19, (4aR)-(10bR)-8-(2-quinolinylthio)-10b-methyl-1,2,3,4,4a,5,6,10b-octahydrobenzo[f]quinolin-3-one], the inhibition at 0.3 µM in test [1] is 59%; in test [2], 56%.
Take `C[C@]12CCC(=O)N[C@@H]1CCc1cc(Sc3cccc4cccnc34)ccc12` [Example 20, (+)-(4aR)-(10bR)-8-(8-quinolinylthio)-10b-methyl-1,2,3,4,4a,5,6,10b-octahydrobenzo[f]quinolin-3-one]: the inhibition at 0.3 µM worked out at 22% in test [1] and 48% in test [2].
`CN1C(=O)CC[C@]2(C)c3ccc(-c4cccc(F)c4F)cc3CC[C@@H]12` [Example 26, (+)-(4aR)-(10bR)-4-methyl-8-(2,3-difluorophenyl)-10b-methyl-1,2,3,4,4a,5,6,10b-octahydrobenzo[f]quinolin-3-one]: the inhibition at 0.3 µM in test [1] came to 86%.
On the same count and under the same terms, the same measure for `CN1C(=O)CC[C@]2(C)c3ccc(-c4ccc(F)c(F)c4)cc3CC[C@@H]12` [Example 27, (+)-(4aR)-(10bR)-4-methyl-8-(3,4-difluorophenyl)-10b-methyl-1,2,3,4,4a,5,6,10b-octahydrobenzo[f]quinolin-3-one]: 92%; for `CN1C(=O)CC[C@]2(C)c3ccc(Sc4ccccc4Cl)cc3CC[C@@H]12` [Example 99, (+)-(4aR)-(10bR)-4,10b-dimethyl-8-(2-chlorophenylthio)-1,2,3,4,-4a,5,6,10b-octahydrobenzo[f]quinolin-3-one]: 88%.
Turning to `CN1C(=O)CC[C@]2(C)c3ccc(-c4ccc([N+](=O)[O-])cc4)cc3CC[C@@H]12` [Example 119, (+)-(4aR)-(10bR)-4-methyl-8-(4-nitrophenyl)-10b-methyl-1,2,3,4,4a,5,6,10b-octahydrobenzo[f]quinolin-3-one], the inhibition at 0.3 µM in test [1] was 84%.
As to `C[C@]12CCC(=O)N[C@@H]1CCc1cc(-c3cnc4ccccc4c3)ccc12` [Example 196, (+)-(4aR)-(10bR)-8-(3-quinolinyl)-10b-methyl-1,2,3,4,4a,-5,6,10b-octahydrobenzo[f]quinolin-3-one], the “percent inhibition of Type I AR” value in test [1] (0.3 μM) is reported as 11%.
Consider `CN1C(=O)CC[C@]2(C)c3ccc(NC(=O)c4ccc(N)cc4)cc3CC[C@@H]12` [Example 271, (4aR)-(10bR)-4,10b-dimethyl-8-(4-aminobenzoylamino)-1,2,3,4,4a,5,6,10b-octahydrobenzo[f]quinolin-3-one], for which, in test [2], the inhibition at 0.3 µM is 36%.
`CN1C(=O)CC[C@]2(C)c3ccc(-c4cccc(NC(=O)c5ccccc5)c4)cc3CC[C@@H]12` [Example 273, (+)-(4aR)-(10bR)-4-methyl-8-(3-[benzoylamino]phenyl)-10b-methyl-1,2,3,4,4a,5,6,10b-octahydrobenzo[f]quinolin-3-one]: the inhibition at 0.3 µM in test [2] is 27%.
Still for that read-out and setting: as for `CN1C(=O)CC[C@]2(C)c3ccc(-c4cccs4)cc3CC[C@@H]12` [Example 278, (4aR)-(10bR)-4,10b-dimethyl-8-(2-thiophenyl)-1,2,3,4,4a,5,6,10b-octahydrobenzo[f]quinolin-3-one], the figure is 28%; as for `CN1C(=O)CC[C@]2(C)c3ccc(/C=C/c4cncc5ccccc45)cc3CC[C@@H]12` [Example 281, (4aR)-(10bR)-4,10b-dimethyl-8-(2-[4-isoquinolinyl]ethenyl)-1,2,3,4,4a,5,6,10b-octahydrobenzo[f]quinolin-3-one], 44%.
`CN1C(=O)CC[C@]2(C)c3ccc(/C=C/c4cnc5ccccc5c4)cc3CC[C@@H]12` [Example 282, (4aR)-(10bR)-4,10b-dimethyl-8-(2-[3-quinolinyl]ethenyl)-1,2,3,4,4a,5,6,10b-octahydrobenzo[f]quinolin-3-one]: the inhibition at 0.3 µM in test [2] was found to be 37%.
Still for that read-out and setting: as for `CN1C(=O)CC[C@]2(C)c3ccc(/C=C/c4ccc5ccccc5n4)cc3CC[C@@H]12` [Example 283, (4aR)-(10bR)-4,10b-dimethyl-8-(2-[2-quinolinyl]ethenyl)-1,2,3,4,4a,5,6,10b-octahydrobenzo[f]quinolin-3-one], the figure is 37%; as for `C[C@]12CCC(=O)N[C@@H]1CCc1cc(C(=O)Nc3ccccc3)ccc12` [Example 291, (+)-(4aR)-(10bR)-8-phenylcarboxamido-10b-methyl-1,2,3,4,4a,5,6,10b-octahydrobenzo[f]quinoline-3-one], 19%.

In general, inhibition refers to the percentage by which the read-out fell short of the control.
